In data set [1] the test system is VEEV (TC-83). The following applies: U-87 MG cells; recently reported; ref Pu et al., 2020; cited from earlier work.
The next data set has as its system U-87 MG cells. Details: method as in Pu et al., 2020. The following applies: ref Pu et al., 2020; cited from earlier work.
Data set [2] can be described thus: in vitro. Particulars: human.
In data set [3] the test system is VEEV (TC-83). Put plainly: microbe, parasite or virus in culture. It is filed as cell-based. The following applies: Venezuelan equine encephalitis virus, U-87 MG, 18 h, read-out: VEEV EC50.
The subject of data set [4] is RSV-A. Kind of data set: RSV-A cytopathic effect (CPE) reduction assay in HEp-2 cells, MTS read-out. The format is cell-based, human respiratory syncytial virus, RSV-A strain Long.
Data set [5] is described as follows: in vitro. Particulars: human. This is another data set of the same source.
Another data set concerns the target AAK1 (Homo sapiens, UniProt Q2M2I8). Put plainly: LanthaScreen Eu Kinase Binding Assay for AAK1. In general terms: TR-FRET usually uses a lanthanide donor and a delayed reading to cut background.
Data set [6] relates to RSV-A. Kind of data set: Anti-RSV-A activity in A549 cells, viral RNA in supernatant by RT-qPCR. The format is cell-based, RSV-A strain Long. Particulars: human respiratory syncytial virus, read-out: RSV-A EC50 (A549, viral RNA levels). In general terms: Real-time PCR tracks product formation cycle by cycle.
Another data set relates to SARS-CoV-2. Put plainly: microbe, parasite or virus in culture. The format is cell-based, SARS-CoV-2 BetaCov/Belgium/GHB-03021/2020. Particulars: Severe acute respiratory syndrome coronavirus 2, 96 h, read-out: SARS-CoV-2 EC50.
Data set [7] can be described thus: in vitro. The following applies: African green monkey.
In data set [8] the target is adaptor-associated kinase 1 (AAK1). Set-up: method as in Verdonck et al., 2019. The following applies: ref Verdonck et al., 2019; read-out: AAK1 IC50 (enzymatic assay); cited from earlier work.
The mark [9] stands for this setting: human respiratory syncytial virus, HEp-2, 96 h; read-out: RSV-A EC50.
Where [10] appears, read: 120 h, A549 cells, RT-qPCR of culture supernatant, MOI 0.1, 5 days.
Where [11] appears, read: human respiratory syncytial virus, HEp-2, 96 h, read-out: RSV-A EC50.

Read-outs that look alike come from different tables or passages of the source.

In general, EC50 refers to the concentration that produces a half-maximal response. In general, IC50 refers to the concentration that inhibits the measured activity by half.

Chain of AAK1 (Q2M2I8 whole entry): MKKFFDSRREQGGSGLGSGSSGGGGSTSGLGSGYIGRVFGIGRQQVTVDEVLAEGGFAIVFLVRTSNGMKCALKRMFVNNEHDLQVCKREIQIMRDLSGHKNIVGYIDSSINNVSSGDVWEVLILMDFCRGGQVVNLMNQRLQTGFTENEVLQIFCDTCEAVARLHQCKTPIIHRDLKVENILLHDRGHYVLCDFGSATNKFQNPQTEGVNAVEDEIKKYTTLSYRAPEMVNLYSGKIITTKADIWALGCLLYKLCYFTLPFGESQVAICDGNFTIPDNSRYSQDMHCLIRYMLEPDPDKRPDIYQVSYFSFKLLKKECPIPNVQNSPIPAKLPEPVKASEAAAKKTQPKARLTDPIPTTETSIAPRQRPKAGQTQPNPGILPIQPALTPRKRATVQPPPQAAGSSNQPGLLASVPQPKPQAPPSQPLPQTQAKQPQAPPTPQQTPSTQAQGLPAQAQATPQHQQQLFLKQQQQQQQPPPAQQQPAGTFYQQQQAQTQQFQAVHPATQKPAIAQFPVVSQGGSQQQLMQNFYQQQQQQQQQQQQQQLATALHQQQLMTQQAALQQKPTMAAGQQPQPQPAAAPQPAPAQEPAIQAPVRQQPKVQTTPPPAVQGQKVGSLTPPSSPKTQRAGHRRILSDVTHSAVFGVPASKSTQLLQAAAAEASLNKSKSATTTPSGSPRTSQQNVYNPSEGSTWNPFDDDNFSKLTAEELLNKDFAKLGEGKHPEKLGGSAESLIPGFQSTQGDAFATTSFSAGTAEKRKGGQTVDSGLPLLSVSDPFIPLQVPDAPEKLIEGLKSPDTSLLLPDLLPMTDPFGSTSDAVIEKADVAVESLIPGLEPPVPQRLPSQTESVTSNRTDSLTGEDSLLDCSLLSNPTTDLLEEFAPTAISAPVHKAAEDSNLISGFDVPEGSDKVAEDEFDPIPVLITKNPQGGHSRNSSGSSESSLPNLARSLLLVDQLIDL

With `COc1cc(O)c2c(c1)/C=C/C[C@H](O)[C@H](O)C(=O)/C=C\C[C@H](C)OC2=O` [5Z-7-Oxozeanol], the EC50 with VEEV (TC-83) [1] is 2.66 ± 0.13 µM. In addition, the CC50 in the data set on U-87 MG cells is over 10 µM.

`CNC(=O)c1cccc(-c2cnc3[nH]cc(C#Cc4cccnc4)c3c2)c1` [Compound 8e]: the CC50 in “in vitro [2]” is over 10 µM. Besides, the concentration giving a half-maximal response (EC50) was over 10 µM in the data set on VEEV (TC-83) [3], 0.29 ± 0.32 µM with RSV-A [4] (setting [9]) and 0.2 µM in the data set on RSV-A [6] (setting [10]). For the same molecule, in the data set “in vitro [5]”, the CC50 at 4 days was over 50 µM. The “AAK1 affinity (in words)” value on AAK1 is reported as “low nanomolar AAK1 affinity”. The molecule also showed an IC50 on AAK1 of 0.0035 µM.

As for `Cc1cncc(C#Cc2c[nH]c3ncc(-c4cccc(C(=O)NC5CC5)c4)cc23)c1` [Compound 9c], the CC50 in “in vitro [2]” is over 10 µM; in “in vitro [7]”, over 100 µM. Besides, the EC50 in the data set with VEEV (TC-83) [3] is 1.8 ± 0.32 µM; in the data set with RSV-A [4] (setting [9]) it was 0.18 ± 0.085 µM; in the data set with SARS-CoV-2, 1.82 ± 0.83 µM. The same molecule returned a CC50 at 4 days in “in vitro [5]” of over 50 µM.

As for `COCCNC(=O)c1cccc(-c2cnc3[nH]cc(C#Cc4cccnc4)c3c2)c1` [Compound 8h], the values for the CC50 in “in vitro [2]” and in “in vitro [7]” were over 10 µM and over 100 µM, respectively. Also, the figures for the EC50 with VEEV (TC-83) [3], in the data set with RSV-A [4] (setting [9]) and with SARS-CoV-2 were 2.48 ± 1.27 µM, 0.72 ± 0.46 µM and 2.13 ± 1.91 µM, respectively. Also, the CC50 at 4 days in “in vitro [5]” was found to be 17.3 ± 7.88 µM.

On to `O=C(NC1CC1)c1cccc(-c2cnc3[nH]cc(C#Cc4cccnc4)c3c2)c1` [Compound 8f], for which, in “in vitro [2]”, the CC50 was over 10 µM. Besides, the figures for the EC50 in the data set with VEEV (TC-83) [3], with RSV-A [4] (setting [9]) and in the data set on RSV-A [6] (setting [10]) were 2.75 ± 1.22 µM, 0.16 ± 0.025 µM and 0.59 µM, respectively. For the same molecule, in “in vitro [5]”, the CC50 at 4 days is over 50 µM. For the same molecule, at AAK1, the “AAK1 affinity (in words)” value is listed as “low nanomolar AAK1 affinity”. This molecule also registered an IC50 on AAK1 of 0.0054 µM.

With `COc1cc(OC)cc(-c2cnc3c(c2)c(C#Cc2cccnc2)cn3C)c1` [Compound 7a], the CC50 in the data set “in vitro [2]” is over 10 µM. For the same molecule, the EC50 with VEEV (TC-83) [3] is over 10 µM. Further, the EC50 with RSV-A [4] (setting [9]) came to 1.65 ± 0.5 µM. This molecule also registered a CC50 at 4 days in the data set “in vitro [5]” of 30 ± 28.3 µM. Moreover, on AAK1, the “AAK1 affinity (in words)” value is reported as “no AAK1 affinity” and the IC50 was over 10 µM.

Take `CCN(CC)C(=O)c1cccc(-c2cnc3[nH]cc(C#Cc4cccnc4)c3c2)c1` [Compound 8k]: the CC50 in the data set “in vitro [2]” is over 10 µM; in the data set “in vitro [7]” it was 88.5 ± 1.41 µM. Moreover, the EC50 in the data set on VEEV (TC-83) [3] was over 10 µM; with RSV-A [4] (setting [9]) it was 0.97 ± 0.18 µM; in the data set on SARS-CoV-2, 10.2 ± 0.14 µM. For the same molecule, the CC50 at 4 days in the data set “in vitro [5]” was determined as 4.04 ± 0.14 µM.

On to `CC(C)CNC(=O)c1cccc(-c2cnc3[nH]cc(C#Cc4cccnc4)c3c2)c1` [Compound 8g], for which the CC50 was over 10 µM in the data set “in vitro [2]” and over 85 µM in “in vitro [7]”. Besides, the concentration giving a half-maximal response (EC50) is 3.75 ± 1.08 µM with VEEV (TC-83) [3], 0.66 ± 0.22 µM in the data set with RSV-A [4] (setting [9]) and 0.76 ± 0.46 µM in the data set on SARS-CoV-2. In “in vitro [5]”, this molecule came in with a CC50 at 4 days of 3.38 ± 1.01 µM.

Regarding `CCNC(=O)c1ccc(-c2cnc3[nH]cc(C#Cc4cccnc4)c3c2)cc1` [Compound 8b], the values for the CC50 in the data set “in vitro [2]” and in the data set “in vitro [7]” were over 10 µM and over 100 µM, respectively. Also, the EC50 in the data set with VEEV (TC-83) [3] turned out to be 6.01 ± 1.81 µM; in the data set on RSV-A [4] (setting [9]), 0.3 ± 0.28 µM; in the data set with SARS-CoV-2, 0.58 ± 0.05 µM; with RSV-A [6] (setting [10]) it was 0.01 µM. For the same molecule, the CC50 at 4 days in the data set “in vitro [5]” was found to be 50 µM. On AAK1, the “AAK1 affinity (in words)” value is “low nanomolar AAK1 affinity”. In addition, the 50% inhibitory concentration (IC50) on AAK1 stood at 0.004 µM.

With `O=C(c1cccc(-c2cnc3[nH]cc(C#Cc4cccnc4)c3c2)c1)N1CCCC1` [Compound 8L], the results for the CC50 in “in vitro [2]” and in the data set “in vitro [7]” were over 10 µM and 6.46 ± 1.75 µM, respectively. The EC50 in the data set with VEEV (TC-83) [3] was over 10 µM; in the data set with RSV-A [4] (setting [9]), 1 ± 0.94 µM; in the data set with SARS-CoV-2, 0.96 ± 0.32 µM. Also, in “in vitro [5]”, the CC50 at 4 days worked out at 5.71 ± 0.044 µM.

For the molecule `COc1cc(-c2cnc3[nH]cc(C#Cc4cccnc4)c3c2)ccn1` [Compound 4g], the CC50 in the data set “in vitro [2]” was over 10 µM. Besides, the results for the EC50 in the data set with VEEV (TC-83) [3] and in the data set on RSV-A [4] (setting [9]) were over 10 µM and 2.71 ± 1.01 µM, respectively. Besides, the CC50 at 4 days in “in vitro [5]” is over 50 µM.

In the data set “in vitro [2]”, `COc1cc(OC)cc(-c2cnc3[nH]cc(C#Cc4cccnc4)c3c2)c1` [Compound 4d] displayed a CC50 of over 10 µM. Also, the EC50 with VEEV (TC-83) [3] is over 10 µM; with RSV-A [4] (setting [11]), 0.55 ± 0.41 µM; with RSV-A [6] (A549, 120 h), 0.05 µM. Moreover, the “selectivity index (SI)” value with RSV-A [4] (CC50 HEp-2 / EC50 RSV-A) is reported as 90. This molecule also registered a CC50 at 4 days in the data set “in vitro [5]” of over 50 µM. Besides, the “AAK1 affinity (in words)” value at AAK1 is “low nanomolar AAK1 affinity”. The IC50 at AAK1 was determined as 0.0062 µM.

For `O=C(NCc1ccccc1)c1cccc(-c2cnc3[nH]cc(C#Cc4cccnc4)c3c2)c1` [Compound 8i], in the data set “in vitro [2]”, the CC50 was over 10 µM. Further, the EC50 was 1.29 ± 1.41 µM in the data set with VEEV (TC-83) [3] and 2.71 ± 2.88 µM in the data set with RSV-A [4] (setting [9]). Further, the CC50 at 4 days in the data set “in vitro [5]” was over 50 µM.

Take `O=C(NC1CC1)c1cccc(-c2cnc3[nH]cc(C#Cc4ccccc4)c3c2)c1` [Compound 9d]: the CC50 in “in vitro [2]” was over 10 µM. Also, the EC50 with VEEV (TC-83) [3] is over 10 µM; in the data set on RSV-A [4] (setting [9]) it was 0.82 ± 0.22 µM. The molecule further came in with a CC50 at 4 days in the data set “in vitro [5]” of over 50 µM.

Turning to `O=C(c1cccc(-c2cnc3[nH]cc(C#Cc4cccnc4)c3c2)c1)N1CCOCC1` [Compound 8m], in the data set “in vitro [2]”, the CC50 is over 10 µM. Also, the values for the EC50 in the data set on VEEV (TC-83) [3] and with RSV-A [4] (setting [9]) were over 10 µM and 3.42 ± 4.4 µM, respectively. This molecule gave a CC50 at 4 days in “in vitro [5]” of 10.9 ± 0.69 µM.

The molecule `COc1cc(OC)cc(-c2cnc3c(c2)c(C#Cc2cccnc2)cn3CC(C)C)c1` [Compound 7c] gave a CC50 in “in vitro [2]” of over 10 µM. For the same molecule, the EC50 with VEEV (TC-83) [3] and in the data set on RSV-A [4] (setting [9]) was over 10 µM in each case. This molecule also gave a CC50 at 4 days in “in vitro [5]” of 10.7 ± 0.98 µM.

As for `COc1cc(-c2cnc3[nH]cc(C#Cc4cccnc4)c3c2)cc(OC)c1OC` [Compound 4e], the CC50 in “in vitro [2]” is over 10 µM. Also, the concentration for a half-maximal effect (EC50) in the data set on VEEV (TC-83) [3] amounted to 1.5 ± 0.17 µM; with RSV-A [4] (setting [9]), 0.71 ± 0.55 µM. For the same molecule, in the data set “in vitro [5]”, the CC50 at 4 days was found to be 1.2 ± 1.13 µM.

With `N#C[C@@]1(c2ccc3c(N)ncnn23)O[C@H](CO)[C@@H](O)[C@H]1O` [GS-441524, reference compound], the EC50 in the data set on SARS-CoV-2 amounted to 0.7 ± 0.07 µM.

For `COc1ccc(-c2cnc3[nH]cc(C#Cc4cccnc4)c3c2)cc1OC` [Compound 1], in “in vitro [2]”, the CC50 was over 10 µM. In addition, the EC50 was found to be 1.22 ± 0.22 µM with VEEV (TC-83) [3] and 0.19 ± 0.13 µM in the data set with RSV-A [4] (setting [11]). The “selectivity index (SI)” value with RSV-A [4] (CC50 HEp-2 / EC50 RSV-A) is reported as 10.5. In addition, the CC50 at 4 days in “in vitro [5]” came out at 2 µM. The values for the IC50 (at AAK1; in [8]) were 0.0042 µM and 0.004 µM, respectively.
